From patent US20090181948A1, “DIAMINE DERIVATIVE” (KYOWA HAKKO KOGYO CO., LTD., priority 2005, published 2009)

target: T1, histamine H3 receptor (Rattus norvegicus, UniProt Q9QYN8); test: Histamine H3 receptor binding assay ([3H]-Nα-methylhistamine binding to rat striatum homogenate); conditions: 1 μmol/L test compound; [3H]-Nα-methylhistamine 1 nmol/L; striata of Sprague-Dawley male rats, 25° C., 1 hour; read-out: Inhibition ratio of [3H]-Nα-methylhistamine binding
T1 construct: from tissue; host or cells: rat striatum (Sprague-Dawley, male, 6 weeks), membrane homogenate
T1 sequence (Q9QYN8 whole entry): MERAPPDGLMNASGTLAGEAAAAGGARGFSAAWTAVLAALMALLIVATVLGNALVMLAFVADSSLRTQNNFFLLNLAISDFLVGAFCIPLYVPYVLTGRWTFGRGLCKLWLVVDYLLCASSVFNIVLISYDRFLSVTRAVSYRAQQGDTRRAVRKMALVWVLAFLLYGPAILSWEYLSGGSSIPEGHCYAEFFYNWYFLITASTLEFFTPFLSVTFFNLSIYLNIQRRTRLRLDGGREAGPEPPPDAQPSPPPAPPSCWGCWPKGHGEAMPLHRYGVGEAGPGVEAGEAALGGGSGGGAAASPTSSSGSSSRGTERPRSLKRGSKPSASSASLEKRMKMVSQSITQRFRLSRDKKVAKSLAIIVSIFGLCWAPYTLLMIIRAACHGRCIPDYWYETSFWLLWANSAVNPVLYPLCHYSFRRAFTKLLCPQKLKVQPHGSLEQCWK
Method: To the striata of Sprague-Dawley male rats (6 weeks of age), a 10-fold volume of lysis buffer {50 mmol/L [[…] (Tris)]/HCl (pH 7.4), 5 mmol/L ethylenediaminetetraacetic acid (EDTA), a protease inhibitor mixture [1 mg/mL phenylmethylsulfonyl fluoride (PMSF), 1 μg/mL pepstatin A, 1 μg/mL leupeptin, 1 μg/mL chymostatin]} was added and the striata were homogenized. The resulting homogenate was centrifuged (30,000×g, 4° C., 30 min), and the obtained precipitate was resuspended in a 10-fold volume of lysis buffer, followed by centrifugation under the same condition. To the obtained precipitate, a 3-fold volume of lysis buffer was added to suspend the precipitate, and the resulting tissue homogenate was used for a test.
A test compound was dissolved in an assay buffer [50 mmol/L Tris/HCl (pH 7.4), 5 mmol/L EDTA], and [^3H]-N^α-methylhistamine (1 nmol/L) and the tissue homogenate (20 μg, in terms of protein amount) were added thereto, and then, the mixture was incubated at 25° C. for 1 hour. Then, the reaction was terminated by rapid suction filtration on a glass filter [GF/B: Whatman, previously soaked in 0.3 w/v % polyethylenimine for about 30 min]. Then, the glass filter was washed three times with 3 mL of assay buffer. This glass filter was transferred into a scintillation vial and dried at 60° C. for 30 minutes. Then, 0.5 mL of Ultimagold (Perkin Elmer) was added thereto, and the radioactivity (binding amount of [^3H]-N^α-methylhistamine) was measured using a liquid scintillation counter. The obtained value was used as a binding amount in the presence of the test compound. The same procedure as described above was carried out in the absence of the test compound, and the binding amount of [^3H]-N^α-methylhistamine obtained at this time was used as a binding amount in the absence of the test compound. Further, the binding amount of [^3H]-N^α-methylhistamine obtained in the presence of 10 μmol/L thioperamide was used as a non-specific binding amount. An inhibitory action of [^3H]-N^α-methylhistamine binding was represented by an inhibition ratio in terms of 1 μmol/L of the test compound calculated by the following Equation (1).
Inhibition ratio(%)={1−[(Binding amount in the presence of test compound)−(Non-specific binding amount)]/[(Binding amount in the absence of test compound)−(Non-specific binding amount)]}×100 (1)

Inhibition at 1 µM, ≥ 80%:
N#CN=C1N(CCCN2CCCCC2)CCN1CCCN1CCCCC1 [Compound 139, 1,3-Bis(3-piperidinopropyl)imidazolidin-2-ylidene Cyanoamide Difumarate]
CC1CCCN1CCCN1CCN(CCCN2CCCC2)C1=C(C#N)C#N (stereo not drawn) [Compound 97, {1-[3-(2-Methylpyrrolidin-1-yl)propyl]-3-[3-(pyrrolidin-1-yl)propyl]imidazolidin-2-ylidene}malononitrile]
CC1CC(C)CN(CCCN2CCN(CCCN3CCCCC3)C2=C(C#N)C#N)C1 (stereo not drawn) [Compound 102, {1-[3-(3,5-Dimethylpiperidino)propyl]-3-(3-piperidinopropyl)imidazolidin-2-ylidene}malononitrile]
C[C@@H]1CCCN1CCCCN1CCN(CCN2CCC[C@H]2C)C1=C(C#N)C#N [Compound 191, {1-[4-((R)-2-methylpyrrolidin-1-yl)butyl]-3-[2-((R)-2-methylpyrrolidin-1-yl)ethyl]imidazolidin-2-ylidene}malononitrile]
N#CC(C#N)=C1N(CCCN2CCCCC2)CCN1CCNC1CCCCC1 [Compound 63, [1-(2-Cyclohexylaminoethyl)-3-(3-piperidinopropyl)imidazolidin-2-ylidene]malononitrile Difumarate]
CC1CCCN1CCCN1CCN(CCCN2CC=CCC2)C1=C(C#N)C#N (stereo not drawn) [Compound 92, {1-[3-(1,2,3,6-Tetrahydropyridin-1-yl)propyl]-3-[3-(2-methylpyrrolidin-1-yl)propyl]imidazolidin-2-ylidene}malononitrile]
C[C@@H]1CCCN1CCCN1CCN(CCCN2CCC[C@@H]2C)C1=C(C#N)S(=O)(=O)c1ccccc1 [Compound 246, {1-[3-((S)-2-methylpyrrolidin-1-yl)propyl]-3-[3-((R)-2-methylpyrrolidin-1-yl)propyl]imidazolidin-2-ylidene}benzenesulfonylacetonitrile]
N#CC(C#N)=C1N(CCCN2CCCCC2)CCN1CCN1CCc2ccccc2C1 [Compound 53, {1-[2-(1,2,3,4-Tetrahydroisoquinolin-2-yl)ethyl]-3-(3-piperidinopropyl)imidazolidin-2-ylidene}malononitrile]
C[C@@H]1CCCN1CCN(C)C(=C(C#N)C#N)N1CCC(CN2CCCCC2)CC1 [Compound 151, ({N-methyl-N-[2-((R)-2-methylpyrrolidin-1-yl)ethyl]amino}(4-piperidinomethylpiperidino)methylene)malononitrile]
CC1CCCN1CCCNC(=C(C#N)C#N)N1CCC(N2CCCCC2)CC1 (stereo not drawn) [Compound 170, {[3-(2-Methylpyrrolidin-1-yl)propylamino](4-piperidinopiperidino)methylene}malononitrile]
CC1CCCN(CCCN2CCN(CCCN3CCCC3C)C2=C(C#N)C#N)C1 (stereo not drawn) [Compound 112, {1-[3-(3-Methylpiperidino)propyl]-3-[3-(2-methylpyrrolidin-1-yl)propyl]imidazolidin-2-ylidene}malononitrile]
CC1CCCN(CCCN2CCN(CCCN3CC(C)CC(C)C3)C2=C(C#N)C#N)C1 (stereo not drawn) [Compound 105, {1-[3-(3,5-Dimethylpiperidino)propyl]-3-[3-(3-methylpiperidino)propyl]imidazolidin-2-ylidene}malononitrile]
CC1CC(C)CN(CCCN2CCN(CCCN3CCCCC3C)C2=C(C#N)C#N)C1 (stereo not drawn) [Compound 104, {1-[3-(3,5-Dimethylpiperidino)propyl]-3-[3-(2-methylpiperidino)propyl]imidazolidin-2-ylidene}malononitrile]
N#CC(C#N)=C(NCCCN1CCCCC1)NCCCN1CCCCC1 [Compound 2, [Bis(3-piperidinopropylamino)methylene]malononitrile]
CC1CCCN1CCCN1CCN(CCCN2CCCC2C)C1=O (stereo not drawn) [Compound 141, 1,3-Bis[3-(2-methylpyrrolidin-1-yl)propyl]imidazolidine-2-one]
